Measurements as given in PubChem BioAssay AID248 (DTP/NCI, 2004).
Several values for one entry are separate records, joined by “and”; a condition that tells them apart may be missing. Equal entries are not always repeated. Toxic doses and inconclusive results are not listed.

Tested on: L1210 leukemia ip in BDF1 mice, survival T/C
Assay: NCI In Vivo Anticancer Drug Screen. Data for tumor model L1210 Leukemia (intraperitoneal) in B6D2F1 (BDF1) mice
Conditions: endpoint: mean survival time, higher = longer survival
Procedure, shortened: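 Tumor cells were implanted, animals were treated, and survival was followed. The result divides the treated measurement by the vehicle-control measurement.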

[1] = dose: 50.0 mg/kg/injection, schedule: Q01DX009 (ip), vehicle: saline with Tween-80
[2] = dose: 100.0 mg/kg/injection, schedule: Q01DX009 (ip), vehicle: saline with Tween-80
[3] = dose: 200.0 mg/kg/injection, schedule: Q01DX009 (ip), vehicle: saline with Tween-80
[4] = dose: 400.0 mg/kg/injection, schedule: Q01DX009 (ip), vehicle: saline with Tween-80
[5] = dose: 100.0 mg/kg/injection, schedule: Q04DX003 (ip), vehicle: Klucel (hydroxypropylcellulose) (HPC)
[6] = dose: 200.0 mg/kg/injection, schedule: Q04DX003 (ip), vehicle: Klucel (hydroxypropylcellulose) (HPC)
[7] = dose: 400.0 mg/kg/injection, schedule: Q04DX003 (ip), vehicle: Klucel (hydroxypropylcellulose) (HPC)
[8] = dose: 100.0 mg/kg/injection, schedule: Q01DX001 (ip), vehicle: saline
[9] = dose: 200.0 mg/kg/injection, schedule: Q01DX001 (ip), vehicle: saline
[10] = dose: 400.0 mg/kg/injection, schedule: Q01DX001 (ip), vehicle: saline
[11] = dose: 100.0 mg/kg/injection, schedule: Q04DX003 (ip), vehicle: saline with Tween-80
[12] = dose: 200.0 mg/kg/injection, schedule: Q04DX003 (ip), vehicle: saline with Tween-80
[13] = dose: 400.0 mg/kg/injection, schedule: Q04DX003 (ip), vehicle: saline with Tween-80

`Cn1c(=O)c2c(nc(NCC[N+](C)(C)C)n2C)n(C)c1=O` was tested, and the T/C (dose: 15.0 mg/kg/injection, schedule: Q01DX001 (ip), vehicle: saline) was 92 % of control and the T/C (dose: 30.0 mg/kg/injection, schedule: Q01DX001 (ip), vehicle: saline) was 97 % of control.
With `CCSc1nc(/C=N/NS(=O)(=O)c2ccccc2)c(F)c(=O)[nH]1` the T/C (dose: 100.0 mg/kg/injection, schedule: Q01DX001 (ip), vehicle: other) was 105 % of control, the T/C (dose: 200.0 mg/kg/injection, schedule: Q01DX001 (ip), vehicle: other) was 101 % of control and the T/C (dose: 400.0 mg/kg/injection, schedule: Q01DX001 (ip), vehicle: other) was 96 % of control.
In the case of `Nc1ccn(CC(=O)c2ccco2)c(=O)n1`, the T/C (dose: 50.0 mg/kg/injection, schedule: Q01DX009 (ip), vehicle: saline) is reported as 111 % of control, the T/C (dose: 100.0 mg/kg/injection, schedule: Q01DX009 (ip), vehicle: saline) is reported as 111 % of control and 90 % of control and the T/C (dose: 100.0 mg/kg/injection, schedule: Q04DX003 (ip), vehicle: saline) is reported as 104 % of control. For the same compound, the T/C (dose: 200.0 mg/kg/injection, schedule: Q01DX009 (ip), vehicle: saline) was 105 % of control and the T/C (dose: 200.0 mg/kg/injection, schedule: Q04DX003 (ip), vehicle: saline) was 97 % of control.
With `Cc1cccc(-c2nc(N)nc(N)n2)c1C` the T/C [1] was 97 % of control, the T/C [2] was 101 % of control and the T/C [3] was 101 % of control.
With `Cc1cc(=O)cc(C)o1` the T/C [2] was 108 % of control, the T/C [3] was 100 % of control and the T/C [4] was 102 % of control.
For `CC(C)N(CCC#N)C(=S)Nc1cccc(C(F)(F)F)c1`, the T/C (dose: 100.0 mg/kg/injection, schedule: Q01DX009 (ip), vehicle: other) was 102 % of control, the T/C (dose: 200.0 mg/kg/injection, schedule: Q01DX009 (ip), vehicle: other) was 104 % of control and the T/C (dose: 400.0 mg/kg/injection, schedule: Q01DX009 (ip), vehicle: other) was 103 % of control.
With `CCCCCCCCCCCCCCCC(=O)Nc1ccc(C(=O)O)cc1` the T/C [5] was 95 % of control, the T/C [6] was 94 % of control and the T/C [7] was 94 % of control.
`Cc1cccc(Cl)c1NC(=O)CS` was tested, and the T/C [2] was 104 % of control, the T/C [3] was 101 % of control and the T/C [4] was 106 % of control.
`O=C1NC(=O)C(c2cccc(F)c2)N1` (centres undefined) was tested, and the T/C (dose: 50.0 mg/kg/injection, schedule: Q01DX001 (ip), vehicle: saline) was 97 % of control, the T/C [8] was 94 % of control and the T/C [9] was 94 % of control. The T/C [10] was 111 % of control.
With `O=[N+]([O-])c1ccc(O)c(/C=N/N2CCCCC2)c1` the T/C (dose: 100.0 mg/kg/injection, schedule: Q04DX002 (ip), vehicle: saline with Tween-80) was 94 % of control, the T/C (dose: 200.0 mg/kg/injection, schedule: Q04DX002 (ip), vehicle: saline with Tween-80) was 97 % of control and the T/C (dose: 400.0 mg/kg/injection, schedule: Q04DX002 (ip), vehicle: saline with Tween-80) was 108 % of control.
`COc1ccccc1CN1CCCN(Cc2ccccc2OC)C1c1ccc(N(CCCl)CCCl)cc1` was tested, and the T/C (dose: 50.0 mg/kg/injection, schedule: Q01DX001 (ip), vehicle: carboxymethylcellulose (CMC)) was 115 % of control, the T/C (dose: 100.0 mg/kg/injection, schedule: Q01DX001 (ip), vehicle: carboxymethylcellulose (CMC)) was 104 % of control and the T/C (dose: 200.0 mg/kg/injection, schedule: Q01DX001 (ip), vehicle: carboxymethylcellulose (CMC)) was 104 % of control. For the same compound, the T/C (dose: 400.0 mg/kg/injection, schedule: Q01DX001 (ip), vehicle: carboxymethylcellulose (CMC)) was 104 % of control.
In the case of `NC(=O)NC1CCCCCC1`, the T/C [11] is reported as 94 % of control, the T/C [12] is reported as 91 % of control and the T/C [13] is reported as 91 % of control.
In the case of `Cc1ccc(S(=O)(=O)OCC(=O)O)cc1`, the T/C [11] is reported as 95 % of control, the T/C [12] is reported as 95 % of control and the T/C [13] is reported as 100 % of control.
For `NC(CS)=NC1CCCC1`, the T/C (dose: 12.5 mg/kg/injection, schedule: Q04DX003 (ip), vehicle: saline) was 108 % of control, the T/C (dose: 25.0 mg/kg/injection, schedule: Q04DX003 (ip), vehicle: saline) was 115 % of control and the T/C (dose: 50.0 mg/kg/injection, schedule: Q04DX003 (ip), vehicle: saline) was 112 % of control.
`CCOC(=S)Nc1ccc(S(=O)(=O)c2ccc(NC(=S)OCC)cc2)cc1` was tested, and the T/C [8] was 96 % of control, the T/C [9] was 92 % of control and the T/C [10] was 98 % of control.
For `CN(C)C(=S)N1CC2C3CCC(O3)C2C1` (centres undefined), the T/C [5] was 95 % of control and the T/C [6] was 104 % of control.
With `CCOC(=O)c1c(Cl)c(Cl)c(C(=O)OCC)c(Cl)c1Cl` the T/C (dose: 100.0 mg/kg/injection, schedule: Q01DX009 (ip), vehicle: saline sonified) was 101 % of control, the T/C [5] was 101 % of control and the T/C (dose: 200.0 mg/kg/injection, schedule: Q01DX009 (ip), vehicle: saline sonified) was 97 % of control. For the same compound, the T/C [6] was 95 % of control, the T/C (dose: 400.0 mg/kg/injection, schedule: Q01DX009 (ip), vehicle: saline sonified) was 95 % of control and the T/C [7] was 92 % of control.
`O=S1(=O)CCCCC1` was tested, and the T/C (dose: 75.0 mg/kg/injection, schedule: Q01DX009 (ip), vehicle: other) was 106 % of control, the T/C (dose: 100.0 mg/kg/injection, schedule: Q04DX003 (ip), vehicle: saline sonified) was 95 % of control and the T/C (dose: 150.0 mg/kg/injection, schedule: Q01DX009 (ip), vehicle: other) was 101 % of control. The T/C (dose: 200.0 mg/kg/injection, schedule: Q04DX003 (ip), vehicle: saline sonified) was 93 % of control, the T/C (dose: 300.0 mg/kg/injection, schedule: Q01DX009 (ip), vehicle: other) was 93 % of control and the T/C (dose: 400.0 mg/kg/injection, schedule: Q04DX003 (ip), vehicle: saline sonified) was 95 % of control.
`c1ccc2c[n+](CC[n+]3ccc4ccccc4c3)ccc2c1` was tested, and the T/C (dose: 75.0 mg/kg/injection, schedule: Q04DX003 (ip), vehicle: saline) was 98 % of control.
`C=CCN(N=O)C(N)=O` was tested, and the T/C (dose: 12.5 mg/kg/injection, schedule: Q01DX Z (ip), vehicle: methylcellulose (MC)) was 106 % of control, the T/C (dose: 25.0 mg/kg/injection, schedule: Q01DX Z (ip), vehicle: methylcellulose (MC)) was 108 % of control and the T/C (dose: 50.0 mg/kg/injection, schedule: Q01DX Z (ip), vehicle: methylcellulose (MC)) was 117 % of control.
With `O=C(Nc1cccc(C2=NCCN2)c1)Nc1ccc(NC(=O)Nc2cccc(C3=NCCN3)c2)c(Cl)c1` the T/C (dose: 0.25 mg/kg/injection, schedule: Q01DX Z (ip), vehicle: carboxymethylcellulose (CMC)) was 100 % of control, the T/C (dose: 0.5 mg/kg/injection, schedule: Q01DX Z (ip), vehicle: carboxymethylcellulose (CMC)) was 105 % of control and the T/C (dose: 1.0 mg/kg/injection, schedule: Q01DX Z (ip), vehicle: carboxymethylcellulose (CMC)) was 104 % of control. For the same compound, the T/C (dose: 2.0 mg/kg/injection, schedule: Q01DX Z (ip), vehicle: carboxymethylcellulose (CMC)) was 110 % of control, the T/C (dose: 16.0 mg/kg/injection, schedule: Q01DX Z (ip), vehicle: carboxymethylcellulose (CMC)) was 207 % of control and the T/C (dose: 16.0 mg/kg/injection, schedule: Q01DX Z (ip), vehicle: water) was 218 % of control. The T/C (dose: 31.0 mg/kg/injection, schedule: Q01DX Z (ip), vehicle: water) was 286 % of control, the T/C (dose: 62.0 mg/kg/injection, schedule: Q01DX Z (ip), vehicle: water) was 173 % of control and the T/C (dose: 62.0 mg/kg/injection, schedule: Q01DX Z (oral), vehicle: carboxymethylcellulose (CMC)) was 105 % of control. For the same compound, the T/C (dose: 125.0 mg/kg/injection, schedule: Q01DX Z (oral), vehicle: carboxymethylcellulose (CMC)) was 94 % of control, the T/C (dose: 250.0 mg/kg/injection, schedule: Q01DX Z (oral), vehicle: carboxymethylcellulose (CMC)) was 97 % of control and the T/C (dose: 500.0 mg/kg/injection, schedule: Q01DX Z (oral), vehicle: carboxymethylcellulose (CMC)) was 97 % of control.
For `O=CN1CCCCC1`, the T/C [8] was 97 % of control and the T/C [9] was 105 % of control.
In the case of `O=C1OC(c2ccccc2)=C/C1=C/c1ccccc1O`, the T/C [1] is reported as 95 % of control, the T/C [2] is reported as 101 % of control and the T/C [3] is reported as 96 % of control.
In the case of `Nc1nc(N)nc(Nc2ccc([As]=O)cc2)n1` (centres undefined), the T/C (dose: 25.0 mg/kg/injection, schedule: Q01DX009 (ip), vehicle: Klucel (hydroxypropylcellulose) (HPC)) is reported as 112 % of control, the T/C (dose: 50.0 mg/kg/injection, schedule: Q01DX009 (ip), vehicle: Klucel (hydroxypropylcellulose) (HPC)) is reported as 117 % of control and the T/C (dose: 100.0 mg/kg/injection, schedule: Q01DX009 (ip), vehicle: Klucel (hydroxypropylcellulose) (HPC)) is reported as 102 % of control.
For `Nc1ccc(CC(=O)O)cc1`, the T/C (dose: 100.0 mg/kg/injection, schedule: Q01DX001 (ip), vehicle: Klucel (hydroxypropylcellulose) (HPC)) was 97 % of control, the T/C (dose: 200.0 mg/kg/injection, schedule: Q01DX001 (ip), vehicle: Klucel (hydroxypropylcellulose) (HPC)) was 101 % of control and the T/C (dose: 400.0 mg/kg/injection, schedule: Q01DX001 (ip), vehicle: Klucel (hydroxypropylcellulose) (HPC)) was 88 % of control.
